The assay concerns the target PKA (catalytic subunit) (Bos taurus, UniProt P00517). Briefly: biochemical.

Regarding `O=C(N[C@@H]1CNCCC[C@H]1OC(=O)c1cc(O)c(C(=O)c2c(O)cccc2C(=O)O)c(O)c1)c1ccc(O)cc1` [balanol], the IC50 (as a rule, the concentration at which inhibition is half-maximal) amounted to 110 nM.

The values above are taken from paper PMC3073382 (Journal of medicinal chemistry, 2010).
